What was measured:
VHL E3 ubiquitin ligase = target: T1, VHL E3 ubiquitin ligase (Homo sapiens, UniProt P40337); test: VHL E3 interaction assay with 35S-labelled tat-ODD IVTT products; format: binding; conditions: after modification by cell extracts
T1 construct: expressed in transfected cells; host or cells: 786-0 cells stably transfected with pcDNA3 VHL.HA (whole extract, anti-HA immunoprecipitation)
Source text: Concordant with the ubiquitination assays discussed above NODD (HIF-1α 343-417) and CODD (HIF-1α 549-582) polypeptides, but not their corresponding proline mutants (HIF-1α 343-417/P402A and HIF-1α 549-582/P564G), bound to VHL E3 ubiquitin ligase after modification by cell extracts. The ^35S-methionine labelled recombinant polypeptides therefore interacted with VHL, supporting the results of the ubiquitination experiments discussed above. The interaction was enhanced by the presence of cell extracts which promote hydroxylation of the prolines at positions 402 and 564 ^19. In contrast, no binding occurred using peptides in which prolines were mutated.
For VHL E3 interaction assays ^35S-methionine labelled HIF-1a substrates were prepared by transcription/translation using TnT7 rabbit reticulocyte lysate (Promega). 100 μM DFO was added to the reaction to suppress prolyl hydroxylase activity of the reticulocyte lysate. Substrate modification was achieved by incubation of HIF-1α translate with RCC4 cell lysate in the presence of ferrous chloride (100 μM). Interaction with VHL E3 was analysed as described previously ^21.

U2OS and Hep3B cells = test: HRE-dependent luciferase reporter assay after transient transfection of NODD/CODD plasmids; format: cell-based, human; conditions: normoxic conditions, 24 hours
Source text: Since normoxic HIFα degradation is saturable ^17 and depends on sub-regions within the ODD we tested whether peptides encoding the HIF-1α amino terminal ODD (NODD) and carboxy terminal ODD (CODD) ^21 could affect HIF activity as measured by hypoxia response element (HRE)-dependent reporter gene expression. Briefly, Degradation is prevented by the NODD and CODD polypeptides competing for prolyl hydroxylation and/or VHL binding, thereby blocking subsequent ubiquitination. We constructed plasmids encoding NODD (HIF-1-α aa 343-417) or CODD (HIF-1-α aa 549-582) linked to nuclear localisation sequences and a c-myc epitope tag. These plasmids were transiently co-transfected into U2OS and Hep3B cells with an HRE-dependent luciferase reporter plasmid. […]
For reporter gene assays DNA fragments encoding HIF-1α amino acids 343-417, 380-417, 390-417, 390-410, 343-400, 530-95, 530-82, 549-82, 556-74 and 530-62 were generated by PCR using oligonucleotides containing 5′ SacII or 3′ AscI sites and inserted into a pCMV/myc/nuc (Invitrogen) derivative bearing these sites in frame with the NLS and epitope tag. […] To generate tet-operator dependent plasmids the open reading frames from the aa343-417 and aa549-82 constructs were subcloned into pUHD 10 ^34. […]

U2OS cells = U2OS cells stably transfected with doxycycline-inducible NODD or CODD; format: cell-based, human
Method: To explore further the therapeutic potential of NODD and CODD polypeptides to activate endogenous HIF we stably transfected U2OS cells with doxycycline-inducible NODD (doxNODD) and CODD constructs (doxCODD) encoding identical sequences to those used for transient transfections.
Cells stably transfected with NODD or CODD controlled by the tetracycline-inducible system were exposed to doxycycline. Cell extracts were prepared 0, 16, 24 and 48 hours after exposure to doxycycline. The extracts of doxNODD (HIF-1α aa343-417), doxCODD (HIF-1α aa549-82) and control cells (empty vector) were then immunoblotted for HIF-1α protein. Increased HIF-1α signals were detected from 16-48 hours following doxycycline administration in doxNODD and doxCODD cells but not in empty vector cells. Levels of HIF-1α induced by hypoxia were also measured for comparison. The endogenous HIF-1α induction was doxycycline dose (0.2-3.2 μg/ml) and time dependent, peaking after 48 hours. Maximal levels were about 20% and about 70% of HIF-1α levels seen following hypoxic or DFO treatment of the doxNODD and doxCODD cells respectively. […]
Stably transfected cell lines were generated by transfecting U2OS cells bearing the reverse tetracycline responsive transactivator ^34 and the tetKRAB silencer construct ^36 with pUHD/HIF plasmids. Following selection in G418 (1 mg/ml) individual colonies were picked. DoxNODD (F21) and doxCODD (myc19) clones expressed pUHD/HIF-1aa343-417/3NLS/c-myc and pUHD/HIF-1α aa549-82/3NLS/c-myc respectively. […]
Cell extracts were prepared in buffer (8M urea, 10% glycerol, 1% SDS, 5 mM DTT, 10 mM Tris/pH 6.8), separated by SDS-PAGE and transferred to Immobilon-P membrane (Millipore). Primary antibodies against HIF-1α, c-myc tag and HA tag were from Transduction Laboratories, Innogenex and Roche Molecular respectively. […]

[1] = system: human microvascular endothelial cells (HMEC-1); test: Tubule formation assay, co-culture with HMEC-1; format: cell-based; conditions: intermittent doxycycline over 5 days
Source text: Artificial activation of the HIF signalling pathway using the methods of the invention should induce angiogenesis and will therefore be of potential therapeutic use in ischaemic disease. We tested the effect of polypeptide induced HIF stabilisation in an in vitro angiogenesis assay, co-culturing human microvascular endothelial cells (HMEC-1) with empty vector transfected or doxCODD cells. In view of the possibility of sustained activation inducing a negative feedback loop we opted to test the effects of intermittent induction. […] As a positive control epidermal Growth Factor (EGF; 5 ng/ml), which is known to induce growth of HMEC-1, was used. To extend these observations into an in vivo model we assayed the effects of injecting tat-fusion proteins into polyurethane sponges implanted subcutaneously in mice. Intermittent injections on days 1, 2, 4 and 5 led to a markedly accelerated angiogenic response assayed on day 7 when compared with sponges injected with proline mutant fusion proteins, excluding a contribution from the tat component ^28. […]
doxCODD or empty vector cells were co-cultivated with human microvascular endothelial cells (HMEC-1) in a ratio of 2:1 in DMEM 10% doxycycline free FCS (Clontech), 2 mM Glutamine and 100 U/ml Penicillin/100 μg/ml Streptomycin. […] Endothelial cells were detected using antibodies to von Willebrand factor (vWF) (Dako).

T1 sequence (P40337 whole entry): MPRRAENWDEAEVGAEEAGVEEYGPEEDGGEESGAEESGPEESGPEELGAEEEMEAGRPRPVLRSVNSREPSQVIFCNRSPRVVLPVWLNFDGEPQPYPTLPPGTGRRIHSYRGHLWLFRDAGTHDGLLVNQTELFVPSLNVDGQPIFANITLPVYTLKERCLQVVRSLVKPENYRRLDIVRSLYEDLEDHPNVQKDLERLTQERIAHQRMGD
T1 sequence (Q15370 whole entry partner): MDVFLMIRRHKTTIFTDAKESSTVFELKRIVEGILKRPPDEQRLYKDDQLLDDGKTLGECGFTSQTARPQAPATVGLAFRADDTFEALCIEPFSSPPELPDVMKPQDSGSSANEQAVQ
T1 sequence (Q15369 whole entry partner): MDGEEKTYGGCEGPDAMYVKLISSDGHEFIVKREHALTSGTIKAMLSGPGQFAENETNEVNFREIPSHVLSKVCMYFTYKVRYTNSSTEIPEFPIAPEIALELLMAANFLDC
T1 sequence (Q13617 whole entry partner): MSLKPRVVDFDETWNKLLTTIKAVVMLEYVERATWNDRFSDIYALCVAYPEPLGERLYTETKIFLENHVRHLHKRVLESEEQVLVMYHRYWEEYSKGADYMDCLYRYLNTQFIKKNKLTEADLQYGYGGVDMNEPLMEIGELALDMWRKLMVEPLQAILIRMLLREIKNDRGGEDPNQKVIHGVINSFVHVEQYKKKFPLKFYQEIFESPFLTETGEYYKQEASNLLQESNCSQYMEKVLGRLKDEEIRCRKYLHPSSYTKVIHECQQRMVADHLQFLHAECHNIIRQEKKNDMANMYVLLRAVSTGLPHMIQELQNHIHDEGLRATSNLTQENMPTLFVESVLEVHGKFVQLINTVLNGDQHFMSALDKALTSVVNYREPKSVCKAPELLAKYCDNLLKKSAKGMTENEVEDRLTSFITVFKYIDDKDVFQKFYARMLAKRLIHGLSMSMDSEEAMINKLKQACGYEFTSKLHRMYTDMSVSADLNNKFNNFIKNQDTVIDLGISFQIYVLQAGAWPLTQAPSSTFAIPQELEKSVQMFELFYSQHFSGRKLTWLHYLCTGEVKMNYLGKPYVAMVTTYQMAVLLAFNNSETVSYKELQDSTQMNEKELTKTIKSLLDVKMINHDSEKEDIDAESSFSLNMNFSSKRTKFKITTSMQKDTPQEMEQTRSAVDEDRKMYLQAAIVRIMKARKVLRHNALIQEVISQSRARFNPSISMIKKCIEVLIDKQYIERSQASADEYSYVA
T1 sequence (P62877 whole entry partner): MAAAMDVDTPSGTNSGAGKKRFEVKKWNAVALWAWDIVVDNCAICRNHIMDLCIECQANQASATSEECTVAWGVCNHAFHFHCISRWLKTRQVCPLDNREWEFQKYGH

Substance: CODD: HIF-1α carboxy terminal ODD polypeptide (aa 549-582) with nuclear localisation sequences and c-myc tag, plasmid expressed
- binding to VHL E3 ubiquitin ligase (VHL E3 ubiquitin ligase): bound
- HRE-dependent relative luciferase activity (U2OS and Hep3B cells): increased relative luciferase activity
- 3H-glucose uptake (U2OS cells; 24 hours induction with doxycycline, versus empty vector cells): enhanced uptake of ^3H-glucose
- ubiquitination of exogenous 35S-methionine labelled HIF-1α (U2OS cells; cell extracts versus empty vector extracts): markedly reduced
- Maximal HIF-1α level relative to hypoxic or DFO treatment (U2OS cells; doxycycline 0.2-3.2 μg/ml, peaking after 48 hours): about 70%
- Glut-1 mRNA (ribonuclease protection) (U2OS cells; doxycycline repeatedly added, 0-8 days): increased for the first 4 days and then declined
- CAIX mRNA (ribonuclease protection) (U2OS cells; doxycycline, 24 and 48 hours): markedly induced mRNA levels
- tubule formation of co-cultured endothelial cells [1]: assembly of co-cultured endothelial cells into complex tubular structures

Reference: US9844546B2, “Antibody against human HIF hydroxylase” (OXFORD UNIVERSITY INNOVATION LIMITED, priority 2001, dated 2017)
